Assays:
Type in all cases: cell-based
PsHv1 = molecular target: T1, PsHv1 (Picea sitchensis, UniProt B8LLA1); assay: inside-out patch-clamp of proton currents, Hill fit
T1 construct: full-length channel (ABR16431.1, 260 a.a.) expressed in Xenopus oocytes
T1 sequence (B8LLA1 1-260): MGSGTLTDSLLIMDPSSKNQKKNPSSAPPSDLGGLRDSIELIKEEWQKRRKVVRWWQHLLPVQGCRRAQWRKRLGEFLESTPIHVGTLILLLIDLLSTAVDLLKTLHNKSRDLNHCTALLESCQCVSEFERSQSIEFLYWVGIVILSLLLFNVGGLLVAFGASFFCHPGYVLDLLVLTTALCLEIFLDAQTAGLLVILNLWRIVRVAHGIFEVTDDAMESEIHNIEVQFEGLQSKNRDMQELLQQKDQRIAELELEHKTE

SmHv1 = molecular target: T2, SmHv1 (Selaginella moellendorffii, UniProt D8SZW5); assay: inside-out patch-clamp of proton currents
T2 construct: gene SELMODRAFT_128853; full-length channel (EFJ10096.1, 242 a.a.) expressed in Xenopus oocytes, after mechanical stimulus
T2 sequence (D8SZW5 1-242): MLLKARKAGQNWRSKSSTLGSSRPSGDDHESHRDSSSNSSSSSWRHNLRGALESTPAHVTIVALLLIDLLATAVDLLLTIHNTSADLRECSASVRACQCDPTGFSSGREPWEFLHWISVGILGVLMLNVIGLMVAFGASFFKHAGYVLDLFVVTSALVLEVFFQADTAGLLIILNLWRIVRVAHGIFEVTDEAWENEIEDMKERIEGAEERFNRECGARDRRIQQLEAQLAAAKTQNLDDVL

AtHv1 = molecular target: T3, AtHv1 (Arabidopsis thaliana, UniProt Q9SGX2); assay: inside-out patch-clamp of proton currents
T3 construct: gene At1g10800; full-length channel (NP_001321473.1, 236 a.a.) expressed in Xenopus oocytes, after mechanical stimulus
T3 sequence (Q9SGX2 1-236): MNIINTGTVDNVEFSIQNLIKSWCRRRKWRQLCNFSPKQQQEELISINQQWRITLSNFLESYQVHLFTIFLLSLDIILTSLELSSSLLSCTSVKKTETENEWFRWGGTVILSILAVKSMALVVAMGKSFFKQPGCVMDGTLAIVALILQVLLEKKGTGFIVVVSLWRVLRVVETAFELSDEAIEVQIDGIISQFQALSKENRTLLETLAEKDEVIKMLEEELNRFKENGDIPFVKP

Row | Compound | IC50 (PsHv1) | inside-out patch-clamp of proton currents (SmHv1) | inside-out patch-clamp of proton currents (AtHv1)
1 | N=C(N)Nc1nc2ccc(Cl)cc2[nH]1 [ClGBI, 5-chloro-2-guanidinobenzimidazole] | 39 ± 8 µM | we tested the effects of 2GBI and ClGBI on AtHv1- and SmHv1-mediated currents post-mechanical stimulation | we tested the effects of 2GBI and ClGBI on AtHv1- and SmHv1-mediated currents post-mechanical stimulation
2 | N=C(N)Nc1nc2ccccc2[nH]1 [2GBI, 2-guanidinobenzimidazole] | 372 ± 28 µM | Despite some small differences in the extent of inhibition by 2GBI, AtHv1, SmHv1, and PsHv1 shared a low sensitivity | Despite some small differences in the extent of inhibition by 2GBI, AtHv1, SmHv1, and PsHv1 shared a low sensitivity

— publication PMC10657467, “Mechanically-primed voltage-gated proton channels from angiosperm plants” (Nature Communications, 2023)
